The values that follow are results of earlier work, collected in PubChem BioAssay AID1259410 (Chemical Carcinogenesis Research Information System (CCRIS), 2018).

The data set relates to rodent tumor promotion studies, tumor incidence. The data set can be described thus: CCRIS tumor promotion studies. The note with it: Carcinogen: 7,12-DIMETHYLBENZ[A]ANTHRACENE; 57-97-6; Doses [Carcinogen]: 200 NMOL IN 200 µL OF ACETONE ONCE; Doses [Promoter]: 0; 2; 5 UMOL IN 20 µL ACETONE 2/D 5 D/WK FOR 20 WK BEGINNING 1 WK AFTER LAST CARCINOGEN DOSE (STUDY DURATION: 24 WK); Doses [Promoter]: 0; 2; 5 UMOL IN 20 µL ACETONE 2/D 5 D/WK FOR 20 WK BEGINNING 1 WK AFTER LAST CARCINOGEN DOSE (STUDY DURATION: 24 WK); Route [Carcinogen]: DERMAL; Route [Promoter]: DERMAL; Species: MOUSE; Strain/Sex: CD-1/FEMALE.

Take `CCCCCCCCCC(=O)OC[C@H](CO)OC(=O)CCCCCCCCC`: the outcome is on record as “skin: papilloma”.
